The record followed here is patent US20080064702A1, “Use of folates for the prevention and treatment of vascular diseases” (priority 2006, published 2008).

The test system of data set [1] is saphenous veins and internal mammary arteries. As to conditions: ca. 45 min after 0.13 mg/kg i.v., vs placebo. The procedure:
(§1) In Vivo Studies. Patients (n=56) undergoing CABG participated in a double-blind placebo controlled study, where they received an intravenous infusion of either 5-MTHF (Merck Eprova, Switzerland) or placebo, administered before the CABG.
(§2) Superoxide/Peroxynitrite Measurements. Vascular superoxide production was measured from fresh human vessels using lucigenin (5 μM)-enhanced chemiluminescence as previously described (Skatchkov M P et al, Biochem Biophys Res Commun. 1999; 254:319). Samples of SV and IMA from the same patient were opened longitudinally to expose the endothelial surface and then equilibrated for 20 minutes in oxygenated (95% O2/5% CO2) Krebs-HEPES buffer (2 mL, pH=7.4) at 37° C. 14. NOS-derived superoxide was measured by adding L-NAME (100 μM) in the equilibrating buffer, and by calculating the difference in superoxide signal compared with basal conditions. Vascular peroxynitrite was determined using luminol (100 μM) instead of lucigenin, and by subtracting the remaining signal after adding the specific peroxynitrite scavenger uric acid (1 mM), as previously described (Laursen J B et al, Circulation. 2001; 103:1282).

Data set [2] has as its system saphenous veins. The procedure:
as §1
(§3) Vasomotor Studies. Endothelium-dependent and endothelium-independent dilatation were assessed using isometric tension studies, as previously described (Guzik T J et al, Circ Res. 2000; 86:e85). Vessel rings were equilibrated and passively pre-tensioned to 3 g, an optimal resting tension that was determined in baseline studies of contractile response to KCl. Following precontraction with phenylephrine (3×10^−6M), vasomotor responses to the endothelium-mediated agonists acetylcholine (ACh, 10^−9M to 10^−5M) and bradykinin (BK, 10^−9 M to 10^−5M), were quantified in 4 equally sized segments from the same vessel. In the ex vivo experiments, vasomotor responses were repeated after incubation for 45 minutes with 0 (control), 1, 10 or 100 μM 5-MTHF, added to the organ bath chambers. Finally, relaxations to the NO donor sodium nitroprusside (SNP, 10^−10M to 10^−6M), were evaluated in the presence of the NOS inhibitor NG-nitro-L-arginine methyl ester (L-NAME; 100 μM).

Data set [3] has as its system saphenous veins and internal mammary arteries. The conditions noted are these: SV and IMA, higher 5-MTHF concentrations (10, 100 μM) compared with 1 μM. As to the method:
(§4) Vessel Harvesting and Ex Vivo Studies. Samples of SV (n=38) and IMA (n=46) from a total of 61 patients, were harvested during CABG operation, as previously described (Channon K M, Trends Cardiovasc Med 2004; 14:323-327; Guzik T J et al., Circulation 2002; 105:1656-1662). Vessel segments were transferred to the laboratory within 30 minutes, in ice cold Krebs-Henseleit buffer. Segments of SV and IMA were incubated with 5-MTHF (0-100 μM) in Krebs-Henseleit buffer for 45 minutes prior to assays of endothelial function, superoxide/peroxynitrite production, radio-labelled arginine/citrulline conversion, western blotting or tissue 5-MTHF and biopterin levels.
as §2, with “Samples of SV and IMA from the same patient were opened longitudinally to expose the endothelial surface and then equilibrated for 20 minutes in oxygenated (95% O2/5% CO2) Krebs-HEPES buffer (2 mL, pH=7.4) at 37° C. 14.” left out

The conditions of data set [4]: ~45 min after 0.13 mg/kg i.v.
Method: (§5) Patients (n=56) undergoing CABG participated in a double-blind placebo controlled study, where they received an intravenous infusion of either 5-MTHF (Merck Eprova, Switzerland) or placebo, administered before the CABG. […] Samples 5 of SV and IMA were harvested ˜45 minutes after the infusion of 5-MTHF (mean time of harvesting 45.7±2.9 minutes after infusion), and assayed for NO-mediated vasomotor function, vascular superoxide production, tissue 5-MTHF and biopterin levels, as described below.
(§6) Blood samples were collected prior to administration of 5-MTHF or placebo, and at the time of vessel harvesting. […] Plasma and tissue levels of 5-MTHF were determined by high performance liquid chromatography (HPLC), as previously described (Leeming R J et al, Metabolism. 1990; 39:902).
Data set [5] in a line: Superoxide scavenging assay, xanthine/xanthine oxidase system. The format is biochemical. The procedure: Superoxide and Peroxynitrite Scavenging Assays. The direct superoxide scavenging effect of 5-MTHF was evaluated with the use of xanthine/xanthine oxidase system. Superoxide production was induced by adding xanthine oxidase ([…]/mL) in Krebs HEPES buffer (2 mL, pH=7.4) at 37° C., containing xanthine (0.133 mM) and lucigenin (5 μM), in the presence of 5-MTHF (0-100 μM) or equal concentrations of ascorbic acid as positive control. Peroxynitrite production was induced by adding 3-morpholinosydnonimine (SIN-1, 1 μM) in Krebs HEPES buffer (2 mL, pH=7.4) at 37° C. containing luminol (100 μM), in the presence of different concentrations of 5-MTHF (0-100 μM) or equal concentrations of uric acid as positive control as previously described (Kuzkaya N et al, J Biol Chem. 2003; 278:22546). The scavenging effects of 5-MTHF, vitamin C or uric acid were calculated as the percent inhibition of chemiluminescence compared with control.

Data set [6] concerns the target eNOS (Homo sapiens, UniProt P29474). The conditions noted are these: IMA, 5-MTHF 1 μM for 45 minutes; paired control 0.14±0.02%/g. The procedure:
as §4

For data set [7], the system named is saphenous veins. As to the method: as §4, §3
This is another data set of the same source.

The conditions of data set [8]: 0.13 mg/kg i.v.; for plasma concentration: preliminary studies.
Method: as §5, §6
The conditions of data set [9]: SV, 45 min.
Method: Plasma and tissue levels of 5-MTHF were determined by high performance liquid chromatography (HPLC), as previously described (Leeming R J et al, Metabolism. 1990; 39:902).
The conditions of data set [10]: 45 minutes after infusion of 5-MTHF; from 11.0±0.62 before.
Text: as §1

A short description of data set [11]: Peroxynitrite scavenging assay, SIN-1 system with luminol. Format: biochemical. The conditions noted are these: SIN-1 1 μM; for direct peroxynitrite scavenging effect: concentrations as low as 1 μM, 5-MTHF and uric acid at equal concentrations. The procedure: Superoxide and Peroxynitrite Scavenging Assays. The direct superoxide scavenging effect of 5-MTHF was evaluated with the use of xanthine/xanthine oxidase system. […] The scavenging effects of 5-MTHF, vitamin C or uric acid were calculated as the percent inhibition of chemiluminescence compared with control.

The subject of data set [12] is vascular endothelium. As to conditions: vessels from 5-MTHF-treated patients. As to the method:
as §1
Oxidative Fluorescent Microtopography. In situ superoxide production was determined in vessel cryosections with the oxidative fluorescent dye dihydroethidium (DHE) (Bendall J K et al, Circ Res. 2005; 97:864). Paired cryosections ([…]) from the same vessel were incubated with DHE (2 μmol/L) in PBS, with or without L-NAME (100 μM). Fluorescence images (x40, Zeiss LSM 510 META laser 6 scanning confocal microscope) were obtained from each vessel quadrant, incorporating the luminal side of the vessel to quantify endothelial cell fluorescence. In each case, segments of vessel rings (with and without L-NAME) were analyzed in parallel with identical imaging parameters. DHE image analysis was carried out in a blinded fashion, and by two independent investigators, by using Image-Pro Plus software (Media Cybernetics).

Data set [13] relates to saphenous veins and internal mammary arteries. The conditions noted are these: IMA, 45 min ex vivo with 1 μM 5-MTHF, vs control. As to the method: as §4
Determination of Biopterin Levels. Biopterin levels in human vessels were determined by HPLC, as previously described (Alp N J et al, J Clin Invest. 2003; 112:725) and expressed as pmol/g of tissue. To examine the effect of 5-MTHF on peroxynitrite-induced oxidation of BH4, SIN-1 (2 μM) was used to oxidize BH4 (0.1 μM) in the presence or absence of 5-MTHF (1 μM) at 37° C. for 14 minutes (Milstien S and Katusic Z. Biochem Biophys Res Commun. 1999; 263:681).

[14] abbreviates: SV segments ~45 min after 0.13 mg/kg i.v., vs placebo.
Where [15] appears, read: 5-MTHF 10 or 100 μM compared with 1 μM.

The structures appear in SMILES notation. Entries after “also recorded” stand apart in the source; their conditions may differ. Where two headings read alike, the source gives them in different places.

Sequence of eNOS (P29474 2-1203 limits assumed): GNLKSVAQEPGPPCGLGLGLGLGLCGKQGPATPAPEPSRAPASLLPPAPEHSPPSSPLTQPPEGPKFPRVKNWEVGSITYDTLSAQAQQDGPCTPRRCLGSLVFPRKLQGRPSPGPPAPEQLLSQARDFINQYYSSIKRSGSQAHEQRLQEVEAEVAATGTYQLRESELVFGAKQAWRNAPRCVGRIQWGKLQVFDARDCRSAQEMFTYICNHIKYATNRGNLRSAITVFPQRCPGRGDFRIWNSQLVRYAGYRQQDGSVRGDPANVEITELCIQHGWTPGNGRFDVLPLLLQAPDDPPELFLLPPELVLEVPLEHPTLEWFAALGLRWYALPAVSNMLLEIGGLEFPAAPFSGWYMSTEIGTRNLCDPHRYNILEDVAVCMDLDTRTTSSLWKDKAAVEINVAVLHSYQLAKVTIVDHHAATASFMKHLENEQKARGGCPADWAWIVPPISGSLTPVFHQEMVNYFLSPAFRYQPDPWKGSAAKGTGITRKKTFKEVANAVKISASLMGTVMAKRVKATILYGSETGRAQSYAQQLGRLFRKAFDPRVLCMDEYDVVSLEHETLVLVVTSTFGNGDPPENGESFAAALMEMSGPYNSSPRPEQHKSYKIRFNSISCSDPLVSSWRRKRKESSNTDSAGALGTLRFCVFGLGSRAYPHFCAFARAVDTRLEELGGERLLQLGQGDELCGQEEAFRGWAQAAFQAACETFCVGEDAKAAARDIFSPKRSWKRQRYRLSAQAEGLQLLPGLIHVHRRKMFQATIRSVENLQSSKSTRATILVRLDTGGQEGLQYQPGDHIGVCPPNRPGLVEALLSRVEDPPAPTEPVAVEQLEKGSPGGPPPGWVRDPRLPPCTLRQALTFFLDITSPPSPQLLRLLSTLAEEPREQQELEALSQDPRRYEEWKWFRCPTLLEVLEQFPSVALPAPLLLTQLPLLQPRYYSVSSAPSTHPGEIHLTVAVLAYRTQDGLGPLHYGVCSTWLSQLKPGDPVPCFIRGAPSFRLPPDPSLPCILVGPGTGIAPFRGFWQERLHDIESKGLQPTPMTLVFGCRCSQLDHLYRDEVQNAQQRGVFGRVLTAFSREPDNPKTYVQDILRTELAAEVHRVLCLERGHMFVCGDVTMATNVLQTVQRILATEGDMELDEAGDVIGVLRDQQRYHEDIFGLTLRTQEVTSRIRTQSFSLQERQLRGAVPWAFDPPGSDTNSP

`CN1c2c(nc(N)[nH]c2=O)NCC1CNc1ccc(C(=O)N[C@@H](CCC(=O)O)C(=O)O)cc1` (stereo partly shown) [5-MTHF, 5-methyltetrahydrofolate]: the vascular superoxide result in [1] (IMA) and in data set [1] (SV) was “significantly lower” each time. Also, the “absolute pre-contractions to phenylephrine” value in [2] (5-MTHF-treated group, placebo 7.72±1.31 g) worked out at 8.20 ± 1.26 g. In addition, in [2] (setting [14]), the “vasomotor responses to acetylcholine (ACh)” value is on record as “significantly greater”. Besides, in data set [2] (setting [14]), the “vasomotor responses to bradykinin (BK)” value is on record as “significantly greater”. In addition, in data set [2] (SV segments ~45 min after 0.13 mg/kg i.v., placebo 19.4±3.3%), the “maximal vasorelaxations to ACh” value is recorded as 43.2±4.5%. In [2] (SV segments ~45 min after 0.13 mg/kg i.v., placebo 37.1±3.7%), the “maximal vasorelaxations to BK” value amounted to 51.4±4.2%. The vascular peroxynitrite production result in data set [3] is recorded as “no further reductions”. Also, the vascular superoxide production result in [3] is “no further reductions”. Also, the “tissue 5-MTHF levels” value in [4] (IMA, placebo 1.54±0.38) came out at 12.7 ± 2.58 nmol/g; in data set [4] (SV, placebo 1.19±0.25), 9.35 ± 1.72 nmol/g. The “effect on measurable superoxide” value in data set [5] (low concentrations (1-10 μM)) was “no detectable effect”. For the same molecule, in data set [5] (only at concentrations >10 μM (FIG. 5A)), the superoxide scavenging effect result was “weak superoxide scavenging effect”. In addition, the superoxide scavenging entry in [5] (very high concentrations (100 μM)) was “only modest superoxide scavenging”. Further, the “citrulline production (conversion of radio-labelled arginine to citrulline)” value in data set [6] turned out to be 0.20±0.03 %/g tissue. Besides, the “maximum relaxations to Ach” value in [7] (setting [15]) is reported as “no further increase”. For the same molecule, the “maximum relaxations to BK” value in [7] (setting [15]) was “no further increase”. Further, the “vasomotor responses to the endothelium-independent agonist SNP” value in [7] (5-MTHF-incubated vs control vessel segments, data not shown) is on record as “no differences”. The “absolute contractions in response to phenylephrine after incubation” value in [7] (baseline 7.9±0.8 g, after incubation) is recorded as “remained unchanged”. The plasma concentration was 1000 to 2000 nM in data set [8] (45 minutes after infusion) and 2000 to 3000 nM in [8] (immediately after administration). In addition, the “plasma 5-MTHF levels” value in data set [8] (at the time of vessel harvesting (~45 min), 5-MTHF-treated group) was 2.28 ± 0.21 µM. The “vascular 5-MTHF levels” value came to 3.40±0.71 nmol/g tissue in [9] (incubation with 5-MTHF 1 μM, control 0.40±0.06); 21.3±8.10 nmol/g tissue in [9] (incubation with 5-MTHF 10 μM); 57.2±18.9 nmol/g tissue in data set [9] (incubation with 5-MTHF 100 μM). Moreover, in [10], the “plasma tHcy” value came out at 9.42 ± 0.46 µmol/L. The “direct peroxynitrite scavenging effect” value in data set [11] is recorded as “strong direct peroxynitrite scavenging effect; also recorded: potent scavenging effect”. For the same molecule, the “reduction of measurable peroxynitrite” value in data set [11] (at 1 μM) is reported as 75%. Besides, in data set [12], the “DHE fluorescence in other regions of the vessel wall” value is listed as “unaffected”. Also, in [13], the BH4/tBio ratio entry is recorded as “increased”. Moreover, the “vascular BH4” value in [13] was “increased”.

`O=C1O[C@H]([C@@H](O)CO)C(O)=C1O` [ascorbic acid, reference compound]: the “reduction of measurable superoxide” value in data set [5] (at 1 μM) is recorded as 50%. Besides, the superoxide scavenging effect result in data set [5] (even at low concentrations (FIG. 5A)) is “expected scavenging effect”.

Consider `O=c1[nH]c(=O)c2[nH]c(=O)[nH]c2[nH]1` [uric acid, reference compound], for which, in data set [11], the “direct peroxynitrite scavenging effect” value is “comparable”.
